Reference: patent publication US20200199647A1, “ASSAY FOR SCREENING MODULATORS OF HOLOPHOSPHATASE ACTIVITY” (UNITED KINGDOM RESEARCH AND INNOVATION, priority 2017, published 2020)

Legend:
[1] = target: T1, PP1 (1 μM) in the presence of R15A (Homo sapiens, UniProt O75807); test: In vitro dephosphorylation of P-eIF2α using stoichiometric PP1c (1 μM) with R15A; type: biochemical; settings: 1 μM PP1c, 1 μM P-eIF2α, 30° C., 16 h; compounds 100 μM
T1 construct: PPP1R15A amino acids 325-636 (R15A); His6 (C); made in house; host or cells: E. coli BL21 pLysS (R15A, eIF2α); E. coli BL21/pGro7 (PP1c)
Description: (§1) PP1c was diluted to the appropriate concentration (as indicated in the figure legends) in dephosphorylation buffer immediately prior to use. Dephosphorylation reactions were carried out by pre-incubating diluted PP1c in the presence or absence of regulatory subunits (either […]), and/or compounds (all at 100 μM, except for Salubrinal which was used at 30 μM), for 15′ at RT. All compounds were diluted in DMSO, and DMSO vehicle was used in all control experiments.
The reaction was initiated by the addition of 1 μM P-eIF2α or ^33P Phosphorylase a substrates and then incubated at 30° C. for 16 h with shaking at 350 rpm. Reactions were stopped by addition of 4× Laemmli sample buffer. eIF2α samples were analyzed by immunoblotting or Phos-tag gels. […] Samples in FIG. 8 and FIG. 16 were run on a 15% SuperSep Phos-tag acrylamide gel (Alpha Laboratories) and visualized by staining with InstantBlue Protein Stain.

[2] = target: T2, R15A (Homo sapiens, UniProt O75807); test: Light scattering to monitor aggregation of R15A; settings: 1 mM compound, 5 μM R15A, 10 min, 20° C.
T2 construct: PPP1R15A amino acids 325-636 (R15A); His6 (C); made in house; host or cells: E. coli BL21 pLysS
Description: Samples were incubated for 10 min at RT. […] Therefore, light scattering was measured at 380 nm emission, 380 nm absorption to monitor the presence of aggregates. For each sample, 100 data points were collected over a period of 10 min, at 20° C., with constant stirring.

[3] = target: T2, R15A; test: Binding of R15A to biotinylated compounds on Streptavidin beads and elution
Description: Purified R15A protein was diluted to 1 μM in IP buffer (50 mM Tris [pH 7.4], 150 mM NaCl, 0.1% Tween20, 10% glycerol). 1 μM R15A, in 100 μl volume, was pre-cleared with 25 μl of Pierce Streptavidin Magnetic Beads (ThermoFisher) for 1 h at 4° C. with rotation at 20 rpm. […] Samples were incubated for 3 h at 4° C. with rotation at 20 rpm. The supernatant was removed, and samples were thoroughly washed and transferred to a fresh Eppendorf. The beads were washed thoroughly with 5×1 ml interaction buffer, with 30 min incubation each time, and then resuspended with 50 μl of 4% SDS Laemmli sample buffer. Samples were run on 4-12% NuPAGE Bis-Tris gels (Life Technologies), and analysed by immunoblotting using α-MBP HRP (E8038) (NEB) (to reveal R15A). […] Samples were incubated for 10 min at 4° C. with 20 rpm rotation. 30 μl of supernatant was added to 10 μl of 16% SDS Laemmli sample buffer. 10 μl sample was run on 4-12% NuPAGE Bis-Tris gel (Life Technologies), and analysed by immunoblotting using α-MBP HRP (E8038) (NEB) (to reveal R15A).

[4] = test system: HeLa cells; test: Cytoprotection of HeLa cells from Tunicamycin (ER) stress; type: cell-based; settings: 250 ng/ml Tunicamycin, 72 h
Description: HeLa cells (40,000 cells/ml) were plated in a 96-well plate and treated with different concentrations of compound, as indicated, or DMSO vehicle in the presence of 250 ng/ml Tunicamycin for 72 h. To monitor cell death, 1/2000 dilution of the CellTox green dye (Promega) was added to the media. The growth of the cells was monitored over time and pictures taken every 2 h with the IncuCyte ZOOM system and analysed by the IncuCyte ZOOM software (Essen BioScience). To compare different compounds and their cytoprotective effect, a growth ratio for each time point was calculated:
Growth ratio=(Phase confluency (%) at X hours)/(Phase confluency (%) at 0 hours)
The end point of the assay (72 h) was chosen for generating the graphs.

[5] = target: T3, PP1 (1 μM) in the presence of R15B (Homo sapiens, UniProt Q5SWA1); test: In vitro dephosphorylation of P-eIF2α using stoichiometric PP1c (1 μM) with R15B; type: biochemical; settings: 1 μM PP1c, 1 μM P-eIF2α, 30° C., 16 h; compound 100 μM
T3 construct: PPP1R15B amino acids 340-698 (R15B); His6 (C); made in house; host or cells: E. coli BL21 pLysS (R15B, eIF2α); E. coli BL21/pGro7 (PP1c)
Description: as §1
The reaction was initiated by the addition of 1 μM P-eIF2α or ^33P Phosphorylase a substrates and then incubated at 30° C. for 16 h with shaking at 350 rpm. Reactions were stopped by addition of 4× Laemmli sample buffer. eIF2α samples were analyzed by immunoblotting or Phos-tag gels. P-eIF2α dephosphorylation was analysed by immunoblotting using anti-Phospho-eIF2α (SerS1) (#9721) (Cell Signaling) and anti-eIF2α (ab26197) (AbCam) antibodies. Samples in FIG. 8 and FIG. 16 were run on a 15% SuperSep Phos-tag acrylamide gel (Alpha Laboratories) and visualized by staining with InstantBlue Protein Stain.
As previously reported (Connor et al., 2001), in vitro PP1c alone (1 μM) dephosphorylated eIF2α, and in vitro co-incubation with R15A had no effect in this assay (FIG. 1A). […]

T2 sequence (O75807 325-636, stated change not applied): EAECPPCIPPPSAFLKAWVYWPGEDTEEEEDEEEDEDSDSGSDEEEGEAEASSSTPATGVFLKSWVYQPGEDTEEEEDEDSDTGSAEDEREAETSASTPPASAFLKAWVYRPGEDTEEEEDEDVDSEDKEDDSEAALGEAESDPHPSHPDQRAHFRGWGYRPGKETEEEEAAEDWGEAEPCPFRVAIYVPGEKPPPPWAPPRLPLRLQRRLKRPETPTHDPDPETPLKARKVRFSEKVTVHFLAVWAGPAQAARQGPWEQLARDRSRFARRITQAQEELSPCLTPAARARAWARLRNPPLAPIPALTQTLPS
T1 sequence (O75807 325-636, stated change not applied): as above
T1 sequence (P62136 7-330 partner): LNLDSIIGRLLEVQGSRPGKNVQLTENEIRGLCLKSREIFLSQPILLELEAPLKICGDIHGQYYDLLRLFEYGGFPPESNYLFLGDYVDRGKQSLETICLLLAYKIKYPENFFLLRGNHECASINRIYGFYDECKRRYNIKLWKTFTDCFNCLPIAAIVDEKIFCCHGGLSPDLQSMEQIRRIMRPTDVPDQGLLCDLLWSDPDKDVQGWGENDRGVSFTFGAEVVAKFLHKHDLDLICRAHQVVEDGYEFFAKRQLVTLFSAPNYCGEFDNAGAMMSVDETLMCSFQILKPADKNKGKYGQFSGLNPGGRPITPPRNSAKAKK
T3 sequence (Q5SWA1 340-698): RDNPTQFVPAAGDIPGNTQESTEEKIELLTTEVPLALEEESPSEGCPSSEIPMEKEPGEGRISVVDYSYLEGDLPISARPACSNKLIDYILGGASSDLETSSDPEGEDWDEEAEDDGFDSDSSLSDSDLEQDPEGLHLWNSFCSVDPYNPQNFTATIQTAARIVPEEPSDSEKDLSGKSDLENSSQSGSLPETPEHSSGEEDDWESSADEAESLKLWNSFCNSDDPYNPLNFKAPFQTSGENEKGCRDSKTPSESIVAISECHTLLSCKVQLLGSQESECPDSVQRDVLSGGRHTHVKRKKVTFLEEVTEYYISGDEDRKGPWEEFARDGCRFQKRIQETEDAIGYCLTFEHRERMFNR
T3 sequence (P62136 7-330 partner limits assumed): as the sequence (P62136 7-330 partner) above

Compound | effect on dephosphorylation of eIF2α by PP1c with R15A [1] | aggregation of R15A (light scattering at 380 nm) [2] | binding to R15A ([3]; 0.5 mM biotinylated compound on Streptavidin beads, 1 μM R15A) | nature of binding to R15A (elution with excess compound) ([3]; elution with 2 mM free compound) | cytoprotection from ER stress [4] | effect on dephosphorylation of eIF2α by PP1c with R15B [5]
N=C(N)N/N=C/c1c(Cl)cccc1Cl [Guanabenz] | neither the selective R15A inhibitors, Guanabenz and Sephin1, nor the selective inhibitor of R15B, Raphin1, had any measurable effects | No aggregation | directly bind R15A | not covalent | Dose dependent cytoprotection | –
NC(N)=N/N=C/c1cccc(Cl)c1Cl [Raphin1] | – | – | – | – | – | nor the selective inhibitor of R15B, Raphin1, had any measurable effects
